Data: patent publication US20260042764A1, “COMPOSITIONS AND METHODS FOR INHIBITION OF KRAS” (TheRas, Inc., priority 2022, published 2026)

What was measured:
GP2d cells (KRAS G12D) = test: Cell-based pERK HTRF assay in GP2d cell (Biological Example 2); conditions: GP2d, GP2d (KRAS G12D) cells, pERK HTRF
Method in brief: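 Phospho-ERK is measured by HTRF following a 60 min compound exposure at 0.25% DMSO, with a 9-point half-log curve topping at 1 μM or 100 nM.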

[1] = biological target: T1, Avi-KRAS G12R (1-169) GppNHp/RAF1 RBD-3xFLAG (52-151) (Homo sapiens, UniProt P01116, G12R); test: Raf1-KRAS G12R-GppNHP disruption HTRF assay (Biological Example 1); assay type: binding; conditions: KRAS G12R, GppNHp-loaded; Table 11
T1 construct: Avi-KRAS G12R (1-169)
T1 sequence (P01116 1-169 isoform P01116-2 G12R): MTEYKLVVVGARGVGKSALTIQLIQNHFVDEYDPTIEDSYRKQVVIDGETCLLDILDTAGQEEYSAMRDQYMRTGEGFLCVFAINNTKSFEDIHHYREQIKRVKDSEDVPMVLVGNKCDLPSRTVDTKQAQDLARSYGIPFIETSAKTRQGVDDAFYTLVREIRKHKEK
Method in brief: (§1)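 Read-out is HTRF signal of the KRAS–RAF1 RBD complex, reported as percentage of activity relative to DMSO (100%). Protein mix and detection reagents each incubated 1 h at room temperature with 700 rpm shaking. Buffer: 50 mM Tris pH 7.5, 100 mM NaCl, 5 mM MgCl2, 0.1% BSA, 0.01% Tween, 10% DMSO.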

[2] = biological target: T2, Avi-KRAS WT (1-169) GppNHp/RAF1 RBD-3xFLAG (52-151) (Homo sapiens, UniProt P01116); test: Raf1-KRAS WT-GppNHP disruption HTRF assay (Biological Example 1); assay type: binding; conditions: KRAS WT, GppNHp-loaded; Table 11
T2 construct: Avi-KRAS WT (1-169)
T2 sequence (P01116 1-169 isoform P01116-2): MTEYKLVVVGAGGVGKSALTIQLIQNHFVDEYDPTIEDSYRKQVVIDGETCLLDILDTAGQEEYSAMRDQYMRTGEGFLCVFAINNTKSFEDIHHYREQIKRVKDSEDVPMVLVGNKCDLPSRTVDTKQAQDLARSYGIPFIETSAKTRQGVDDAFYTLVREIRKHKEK
Method in brief: as §1

[3] = biological target: T3, Avi-KRAS G12D (1-169) GppNHp/RAF1 RBD-3xFLAG (52-151) (Homo sapiens, UniProt P01116, G12D); test: Raf1-KRAS G12D-GppNHP disruption HTRF assay (Biological Example 1); assay type: binding; conditions: KRAS G12D, GppNHp-loaded; Table 11
T3 construct: Avi-KRAS G12D (1-169)
T3 sequence (P01116 1-169 isoform P01116-2 G12D): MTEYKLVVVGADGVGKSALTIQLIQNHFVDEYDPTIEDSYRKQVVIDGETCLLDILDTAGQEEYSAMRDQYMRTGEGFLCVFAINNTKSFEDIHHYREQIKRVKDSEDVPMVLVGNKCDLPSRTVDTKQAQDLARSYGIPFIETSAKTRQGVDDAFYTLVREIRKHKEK
Method in brief: as §1

[4] = biological target: T4, Avi-KRAS G12V (1-169) GppNHp/RAF1 RBD-3xFLAG (52-151) (Homo sapiens, UniProt P01116, G12V); test: Raf1-KRAS G12V-GppNHP disruption HTRF assay (Biological Example 1); assay type: binding; conditions: KRAS G12V, GppNHp-loaded; Table 11
T4 construct: Avi-KRAS G12V (1-169)
T4 sequence (P01116 1-169 isoform P01116-2 G12V): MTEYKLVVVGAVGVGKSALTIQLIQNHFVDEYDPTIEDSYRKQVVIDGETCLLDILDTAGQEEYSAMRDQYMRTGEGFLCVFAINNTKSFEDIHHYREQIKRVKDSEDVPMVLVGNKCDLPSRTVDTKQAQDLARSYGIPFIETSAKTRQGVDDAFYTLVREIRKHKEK
Method in brief: as §1

Row | SMILES | IC50 (GP2d cells (KRAS G12D)) [nM] | IC50 [1] [nM] | IC50 [2] [nM] | IC50 [3] [nM] | IC50 [4] [nM]
1 | CN(c1nc(OC[C@@]23CCCN2C[C@H](F)C3)nc2c(F)c(-c3ccc(F)c4sc(N)c(C#N)c34)c(C(F)(F)F)cc12)[C@H]1CCS(=O)(=O)C1 [Compound 94, 2-amino-4-(4-(((S)-1,1-dioxidotetrahydrothiophen-3-yl)(methyl)amino)-8-fluoro-2-(((2R,7aS)-2-fluorotetrahydro-1H-pyrrolizin-7a(5H)-yl)methoxy)-6-(trifluoromethyl)quinazolin-7-yl)-7-fluorobenzo[b]thiophene-3-carbonitrile] | < 100 | 100 to 1000 | 100 to 1000 | 100 to 1000 | 100 to 1000
2 | CC(=O)N1CCN(c2nc(OC[C@@]34CCCN3C[C@H](F)C4)nc3c(F)c(-c4ccc(F)c5sc(N)c(C#N)c45)c(C(F)(F)F)cc23)C[C@@H]1CC#N [Compound 183] | 100 to 1000 | 1000 to 10000 | 1000 to 10000 | 1000 to 10000 | 1000 to 10000
3 | N#Cc1c(N)sc2c(F)ccc(-c3c(C(F)(F)F)cc4c(N5CC[C@@H]5CO)nc(OC[C@@]56CCCN5C[C@H](F)C6)nc4c3F)c12 [Compound 168] | < 100 | 100 to 1000 | < 100 | < 100 | 100 to 1000
4 | N#Cc1c(N)sc2c(F)ccc(-c3c(C(F)(F)F)cc4c(N5CC(CO)C5)nc(OC[C@@]56CCCN5C[C@H](F)C6)nc4c3F)c12 [Compound 129] | < 100 | 100 to 1000 | 100 to 1000 | 100 to 1000 | 100 to 1000
5 | N#Cc1c(N)sc2c(F)ccc(-c3c(C(F)(F)F)cc4c(N5CCC(F)(F)CC5)nc(OC[C@@]56CCCN5C[C@H](F)C6)nc4c3F)c12 [Compound 150] | < 100 | 100 to 1000 | 100 to 1000 | 100 to 1000 | 1000 to 10000
6 | N#Cc1c(N)sc2c(F)ccc(-c3c(C(F)(F)F)cc4c(N5CCC(F)(F)C5)nc(OC[C@@]56CCCN5C[C@H](F)C6)nc4c3F)c12 [Compound 159] | < 100 | 100 to 1000 | 100 to 1000 | 100 to 1000 | 1000 to 10000
7 | CN(c1nc(OC[C@@]23CCCN2C[C@H](F)C3)nc2c(F)c(-c3ccc(F)c4sc(N)c(C#N)c34)c(C(F)(F)F)cc12)[C@H]1CCOC1 [Compound 133] | < 100 | 100 to 1000 | 100 to 1000 | 100 to 1000 | 100 to 1000
8 | CCN(CCCO)c1nc(OC[C@@]23CCCN2C[C@H](F)C3)nc2c(F)c(-c3ccc(F)c4sc(N)c(C#N)c34)c(C(F)(F)F)cc12 [Compound 175] | < 100 | 100 to 1000 | 100 to 1000 | 100 to 1000 | 100 to 1000
9 | N#Cc1c(N)sc2c(F)ccc(-c3c(C(F)(F)F)cc4c(N5CC[C@H](O)C5)nc(OC[C@@]56CCCN5C[C@H](F)C6)nc4c3F)c12 [Compound 125] | < 100 | 100 to 1000 | 100 to 1000 | 100 to 1000 | 100 to 1000
10 | N#Cc1c(N)sc2c(F)ccc(-c3c(C(F)(F)F)cc4c(N5CCC6(CC5)CC(O)C6)nc(OC[C@@]56CCCN5C[C@H](F)C6)nc4c3F)c12 [Compound 45] | 100 to 1000 | 100 to 1000 | 100 to 1000 | 100 to 1000 | 100 to 1000
11 | C[C@@H]1CN(c2nc(OC[C@@]34CCCN3C[C@H](F)C4)nc3c(F)c(-c4ccc(F)c5sc(N)c(C#N)c45)c(C(F)(F)F)cc23)C[C@@H](C)O1 [Compound 144] | < 100 | 100 to 1000 | 100 to 1000 | 100 to 1000 | 1000 to 10000
12 | CN(c1nc(OC[C@@]23CCCN2C[C@H](F)C3)nc2c(F)c(-c3ccc(F)c4scc(C#N)c34)c(C(F)(F)F)cc12)[C@@H]1CCN(C(=O)CO)C1 [Compound 107] | > 1000 | > 10000 | > 10000 | > 10000 | > 10000
13 | N#Cc1c(N)sc2c(F)ccc(-c3c(C(F)(F)F)cc4c(N5CCC(F)CC5)nc(OC[C@@]56CCCN5C[C@H](F)C6)nc4c3F)c12 [Compound 151] | < 100 | 100 to 1000 | 100 to 1000 | 100 to 1000 | 100 to 1000
14 | CN(c1nc(OC[C@@]23CCCN2C[C@H](F)C3)nc2c(F)c(-c3ccc(F)c4sc(N)c(C#N)c34)c(Cl)cc12)[C@H]1C[C@@H](O)C1 [Compound 24] | < 100 | 100 to 1000 | 100 to 1000 | 100 to 1000 | 100 to 1000
15 | CN(C[C@H](O)CO)c1nc(OC[C@@]23CCCN2C[C@H](F)C3)nc2c(F)c(-c3ccc(F)c4sc(N)c(C#N)c34)c(C(F)(F)F)cc12 [Compound 79] | < 100 | 100 to 1000 | 100 to 1000 | < 100 | 100 to 1000
16 | CN(c1nc(OC[C@@]23CCCN2C[C@H](F)C3)nc2c(C#N)c(-c3ccc(F)c4sc(N)c(C#N)c34)c(Cl)cc12)[C@H]1C[C@@H](O)C1 [Compound 30, 7-(2-amino-3-cyano-7-fluorobenzo[b]thiophen-4-yl)-6-chloro-2-(((2R,7aS)-2-fluorotetrahydro-1H-pyrrolizin-7a(5H)-yl)methoxy)-4-(((1s,3R)-3-hydroxycyclobutyl)(methyl)amino)quinazoline-8-carbonitrile] | 100 to 1000 | 100 to 1000 | 100 to 1000 | 100 to 1000 | 100 to 1000
17 | CN(c1nc(OC[C@@]23CCCN2C[C@H](F)C3)nc2c(F)c(-c3ccc(F)c4sc(N)c(C#N)c34)c(C(F)(F)F)cc12)[C@@H]1CCOC1 [Compound 132] | < 100 | 100 to 1000 | 100 to 1000 | 100 to 1000 | 100 to 1000
18 | CCN(c1nc(OC[C@@]23CCCN2C[C@H](F)C3)nc2c(F)c(-c3ccc(F)c4sc(N)c(C#N)c34)c(C(F)(F)F)cc12)C(C)C [Compound 154] | < 100 | 100 to 1000 | 100 to 1000 | 100 to 1000 | 100 to 1000
19 | N#CC[C@@H]1CN(c2nc(OC[C@@]34CCCN3C[C@H](F)C4)nc3c(F)c(-c4ccc(F)c5sc(N)c(C#N)c45)c(C(F)(F)F)cc23)CCO1 [Compound 136] | < 100 | 100 to 1000 | 100 to 1000 | 100 to 1000 | 1000 to 10000

Further lines, results first:

Row | IC50 (GP2d cells (KRAS G12D)) [nM] | IC50 [1] [nM] | IC50 [2] [nM] | IC50 [3] [nM] | IC50 [4] [nM] | SMILES
20 | < 100 | 100 to 1000 | 100 to 1000 | 100 to 1000 | 100 to 1000 | N#Cc1c(N)sc2c(F)ccc(-c3c(C(F)(F)F)cc4c(N5CCOCC5)nc(OC[C@@]56CCCN5C[C@H](F)C6)nc4c3F)c12 [Compound 90]
21 | < 100 | 100 to 1000 | 100 to 1000 | 100 to 1000 | 100 to 1000 | N#Cc1c(N)sc2c(F)ccc(-c3c(C(F)(F)F)cc4c(N5C[C@H](F)[C@@H](F)C5)nc(OC[C@@]56CCCN5C[C@H](F)C6)nc4c3F)c12 [Compound 158]
22 | < 100 | < 100 | < 100 | < 100 | 100 to 1000 | N#Cc1c(N)sc2c(F)ccc(-c3c(C(F)(F)F)cc4c(N(CCO)CCO)nc(OC[C@@]56CCCN5C[C@H](F)C6)nc4c3F)c12 [Compound 174]
23 | 100 to 1000 | 1000 to 10000 | 100 to 1000 | 100 to 1000 | 1000 to 10000 | C[C@H](O)C1CCN(c2nc(OC[C@@]34CCCN3C[C@H](F)C4)nc3c(F)c(-c4ccc(F)c5sc(N)c(C#N)c45)c(C(F)(F)F)cc23)CC1 [Compound 50]
24 | < 100 | 100 to 1000 | 100 to 1000 | 100 to 1000 | 100 to 1000 | CCC(=O)N1CC[C@@H](N(C)c2nc(OC[C@@]34CCCN3C[C@H](F)C4)nc3c(F)c(-c4ccc(F)c5sc(N)c(C#N)c45)c(C(F)(F)F)cc23)[C@H]1C [Compound 116]
25 | < 100 | 100 to 1000 | 100 to 1000 | < 100 | 100 to 1000 | CCN(CCO)c1nc(OCC23CCCN2CCC3)nc2c(F)c(-c3ccc(F)c4sc(N)c(C#N)c34)c(C(F)(F)F)cc12 [Compound 176]
26 | < 100 | 100 to 1000 | 100 to 1000 | 100 to 1000 | 1000 to 10000 | CN(c1nc(OC[C@@]23CCCN2C[C@H](F)C3)nc2c(F)c(-c3ccc(F)c4sc(N)c(C#N)c34)c(C(F)(F)F)cc12)[C@H]1C[C@@](C)(O)C1 [Compound 31, 2-amino-7-fluoro-4-(8-fluoro-2-(((2R,7aS)-2-fluorotetrahydro-1H-pyrrolizin-7a(5H)-yl)methoxy)-4-(((1s,3R)-3-hydroxy-3-methylcyclobutyl)(methyl)amino)-6-(trifluoromethyl)quinazolin-7-yl)benzo[b]thiophene-3-carbonitrile]
27 | < 100 | 100 to 1000 | 100 to 1000 | 100 to 1000 | 100 to 1000 | CCN(c1nc(OC[C@@]23CCCN2C[C@H](F)C3)nc2c(F)c(-c3ccc(F)c4sc(N)c(C#N)c34)c(C(F)(F)F)cc12)[C@@H]1CCN(C(C)=O)[C@@H]1COC [Compound 118]
